Values joined by “and” are separate entries in the source; they are usually repeats but may differ in a detail not shown here. Identical values can stand only once. Like-named read-outs stand apart in the source and are kept apart here. *1 amine or outer side, *2 acyl side, *3 side chain or, on linkers, in order; H or OH if unused. Where a SMILES comes first, the peptide text is derived from it. Bridges are numbered along the chain shown (N, C = ends). Where no end group is shown, it is not given here. [ ]: non-standard residue; d: D form. The star is where a group is joined. Orn(4R-OH,5R-OH) = O=C([C@H](C[C@@H](O)[C@@H](O)N[*:3])N[*:1])[*:2]; Tetradecanoyl(10R,12S-Me2) = CC[C@H](C)C[C@H](C)CCCCCCCCC(=O)*; hTyr(3S-OH,4S-OH) = N[C@H](C(=O)O)[C@H](O)[C@@H](O)c1ccc(O)cc1; Gln(3R-OH) = NC(=O)C[C@@H](O)[C@H](N)C(=O)O; Pro(3S-OH) = O=C(O)[C@H]1NCC[C@@H]1O; Hyp = O=C(O)[C@@H]1C[C@@H](O)CN1
System: C. elegans
[1] = Table S2, C. elegans SS assay, 110 μM, averages of 4 data points

Molecule: C=C/C(C)=C/C=C/C(C)=C/C=C1/C(C)=CCCC1(C)C [all-trans-Anhydro Retinol]
- Percentage of motility inhibition 0 h [1]: 61%
- Percentage of motility inhibition 24 h [1]: 58%

Molecule: CCN1C[C@]2(COC)CC[C@H](OC)C34C1C([C@H](OC)[C@@H]32)[C@]1(OC(C)=O)[C@@H]2[C@H]4C[C@@](O)([C@@H]2OC(=O)c2ccccc2)[C@@H](OC)[C@@H]1O [3‐Deoxyaconitine]
- Percentage of motility inhibition 0 h [1]: 9%
- Percentage of motility inhibition 24 h [1]: 0%

Molecule: OCC1=C[C@@H](O)[C@]2(O[C@@H]3O[C@H](CO)[C@@H](O)[C@H](O)[C@H]3O)C=CO[C@@H](O[C@@H]3O[C@H](CO)[C@@H](O)[C@H](O)[C@H]3O)[C@H]12 [Melittoside]
- Percentage of motility inhibition 0 h [1]: 0%
- Percentage of motility inhibition 24 h [1]: 4%

Molecule: CC(C)=CCC[C@](C)(O)[C@H]1CC[C@]2(C)[C@@H]1[C@H](O)C[C@@H]1[C@@]3(C)CC[C@H](O)C(C)(C)[C@@H]3[C@@H](O)C[C@]12C [(20S)-Protopanaxatriol]
- Percentage of motility inhibition 0 h [1]: 31%
- Percentage of motility inhibition 24 h [1]: 32%

Molecule: O=c1[nH]c2ccccc2c(-c2cccc(O)c2)c1O [Viridicatol]
- Percentage of motility inhibition 0 h [1]: 0%
- Percentage of motility inhibition 24 h [1]: 0%

Molecule: CSCCC(=O)O [3‐(Methylthio)propionic acid]
- Percentage of motility inhibition 0 h [1]: 9%
- Percentage of motility inhibition 24 h [1]: 0%

Molecule: RKDVY [Thymopentin (acetate)]
- Percentage of motility inhibition 0 h (110 μM): 4%
- Percentage of motility inhibition 24 h (110 µM): 4%

Molecule: COC(=O)N[C@H](C(=O)N1CCC[C@H]1c1ncc(-c2ccc(-c3ccc(-c4cnc([C@@H]5CCCN5C(=O)[C@@H](NC(=O)OC)C(C)C)[nH]4)cc3)cc2)[nH]1)C(C)C.Cl.Cl [Daclatasvir (dihydrochloride)]
- Percentage of motility inhibition 0 h [1]: 39%
- Percentage of motility inhibition 24 h [1]: 2%

Molecule: CC(=O)O[C@H](C[C@@H](C)[C@H]1C(=O)[C@H](O)[C@@]2(C)[C@@H]3CC[C@H]4C(C)(C)[C@@H](O[C@@H]5OC[C@H](O)[C@H](O)[C@H]5O)CC[C@@]45C[C@@]35CC[C@]12C)[C@@H]1OC1(C)C [Acetylshengmanol Arabinoside]
- Percentage of motility inhibition 0 h [1]: 30%
- Percentage of motility inhibition 24 h [1]: 30%

Molecule: CC[C@H](C)C[C@H](C)CCCCCCCCC(=O)N[C@H]1C[C@@H](O)[C@@H](O)NC(=O)[C@@H]2[C@@H](O)CCN2C(=O)[C@H]([C@H](O)CC(N)=O)NC(=O)[C@H]([C@H](O)[C@@H](O)c2ccc(O)cc2)NC(=O)[C@@H]2C[C@@H](O)CN2C(=O)[C@H]([C@@H](C)O)NC1=O [Pneumocandin B0] ({Tetradecanoyl(10R,12S-Me2)}-[Orn(4R-OH,5R-OH)]T[Hyp][hTyr(3S-OH,4S-OH)][Gln(3R-OH)][Pro(3S-OH)]; lactam 1-C)
- Percentage of motility inhibition 0 h [1]: 0%
- Percentage of motility inhibition 24 h [1]: 0%

Molecule: COc1cc(/C=C/C(=O)OCC[N+](C)(C)C)cc(OC)c1O.N#C[S-] [Sinapine (thiocyanate)]
- Percentage of motility inhibition 0 h [1]: 0%
- Percentage of motility inhibition 24 h [1]: 0%

Molecule: COC1=C[C@@H]2[C@@H]3Cc4ccc(OC)c(O)c4[C@]2(CCN3C)CC1=O.Cl [Sinomenine hydrochloride]
- Percentage of motility inhibition 24 h [1]: 0% and 8%

Molecule: CC(=O)O[C@@]12CO[C@@H]1C[C@H](O[C@@H]1OC[C@@H](O)[C@H](O)[C@H]1O)[C@@]1(C)C(=O)[C@H](O)C3=C(C)[C@@H](OC(=O)[C@H](O)[C@@H](NC(=O)c4ccccc4)c4ccccc4)C[C@@](O)([C@@H](OC(=O)c4ccccc4)[C@H]21)C3(C)C [10-Deacetyl-7-xylosyl paclitaxel]
- Percentage of motility inhibition 0 h [1]: 0%
- Percentage of motility inhibition 24 h [1]: 14%

Molecule: COc1cc2c(cc1OC)C1Cc3ccc(OC)c(OC)c3CN1CC2.Cl (centres unmarked) [Tetrahydropalmatine (hydrochloride)]
- Percentage of motility inhibition 0 h [1]: 0%
- Percentage of motility inhibition 24 h [1]: 9% and 7%

Molecule: CN(Cc1ccc(C(C)(C)C)cc1)Cc1cccc2ccccc12.Cl [Butenafine (Hydrochloride)]
- Percentage of motility inhibition 0 h [1]: 43%
- Percentage of motility inhibition 24 h [1]: 0%
